The conditions of series [1]: cited from earlier work.
Series [2] can be described thus: Dynamic vapour sorption (DVS) with post-DVS XRPD. It is filed as physicochemical. Conditions: for hygroscopicity by DVS: 20% to 70% RH, non-hygroscopic = weight gain of less than 2 weight-%; for Post-DVS XRPD analysis: after DVS sorption/desorption cycle; for hygroscopicity compared with cabozantinib malate: based on DVS isotherm; for water up take (weight gain) by DVS: between 20% and 70% RH, ca. 25° C. As for the experimental part:
XRPD analysis was carried out on a Siemens D5000 diffractometer, scanning the samples between 3 and 50 or 30°2-theta. For samples of less than 100 mg, 10-20 mg of material was gently compressed onto a glass disc inserted into an XRPD sample holder. For samples of more than 100 mg, ca. 100 mg of material was gently compressed into a plastic XRPD sample holder to ensure a smooth sample surface, just above the level of the sample holder. The sample was then loaded into the diffractometer running in reflection mode and analyzed using the following experimental conditions. C) Water Content: Dynamic Vapour Sorption (DVS) Approximately 10-20 mg of sample was placed into a vapour sorption balance pan and loaded into a DVS-1 dynamic vapour sorption balance by Surface Measurement Systems. The sample was subjected to a ramping profile from 20-90% relative humidity (RH) at 10% increments, maintaining the sample at each step until a stable weight had been achieved (99.5% step completion). After completion of the sorption cycle, the sample was dried using the same procedure, but all the way down to 0% RH and finally taken back to the starting point of 20% RH. The weight change during the sorption/desorption cycles were plotted, allowing for the hygroscopic nature of the sample to be determined.

Series [3] is described as follows: Aqueous solubility measurement (slurry in deionized water, HPLC analysis). It is filed as physicochemical. As for the experimental part: HPLC analysis was performed according to the following conditions: • Instrument: Agilent 1100 • Column: Grace Smart RP 185μ 150×4.6 mm • Column Temperature: 30° C. UV wavelength: 249 nm • Injection Volume: 10 μl • Flow Rate: 1.2 ml/min • Mobile Phase A: 0.1% Phosphoric acid • Mobile Phase B: 0.1% Phosphoric acid in acetonitrile • Gradient program: H) Aqueous Solubility Measurements Each salt was individually slurried in deionized water and subjected to shaking for ca. 24 h at ambient temperature (ca. 22° C.). The resulting saturated solutions were filtered and analyzed by HPLC analysis. XRPD analysis was carried out on any solid retained after the solubility experiment.

A short description of series [4]: Thermogravimetric/differential thermal analysis (TG/DTA). It is filed as physicochemical. The method, then: B) Organic Solvent Content: Thermogravimetric Analysis (TGA) Approximately, 5-10 mg of material was accurately weighed into an open aluminium pan and loaded into a simultaneous thermogravimetric/differential thermal analyser (TG/DTA) and held at room temperature. The sample was then heated at a rate of 10° C./min from 25° C. to 300° C. during which time the change in sample weight was recorded along with any differential thermal events (DTA). Nitrogen was used as the purge gas, at a flow rate of 100 cm^3/min.

For series [5] the following is noted: reported in WO2010/083414; cited from earlier work.
[6] abbreviates: listed as acetate salt, acetate.
[7] abbreviates: listed as cabozantinib succinate Form A, succinate.
Where [8] appears, read: listed as crystalline succinate salt of cabozantinib, succinate.

SMILES strings stand for the structures.

On to `COc1cc2nccc(Oc3ccc(NC(=O)C4(C(=O)Nc5ccc(F)cc5)CC4)cc3)c2cc1OC` [Cabozantinib, N-{4-[(6,7-dimethoxy-4-quinolinyl)oxy]phenyl}-N′-(4-fluorophenyl)-1,1-cyclopropanedicarboxamide], for which the “solubility (BCS classification)” value in series [1] was “low solubility”.

As for `CC(=O)O.COc1cc2nccc(Oc3ccc(NC(=O)C4(C(=O)Nc5ccc(F)cc5)CC4)cc3)c2cc1OC` [Form A-1, N-{4-[(6,7-dimethoxy-4-quinolinyl)oxy]phenyl}-N′-(4-fluorophenyl)-1,1-cyclopropanedicarboxamide acetate], in series [2], the “hygroscopicity by DVS” value is recorded as “non-hygroscopic” and the “hygroscopicity compared with cabozantinib malate” value is given as “less hygroscopic”. Also, the “Post-DVS XRPD analysis” value in series [2] (acetate) was “remained crystalline and consistent with the input form”. Besides, in series [2] (setting [6]), the “Post-DVS XRPD analysis” value is listed as “remained crystalline” and the “water up take (weight gain) by DVS” value is given as roughly 0.1 weight-%.

As to `COc1cc2nccc(Oc3ccc(NC(=O)C4(C(=O)Nc5ccc(F)cc5)CC4)cc3)c2cc1OC.O=C(O)CCC(=O)O` [Form A, N-{4-[(6,7-dimethoxy-4-quinolinyl)oxy]phenyl}-N′-(4-fluorophenyl)-1,1-cyclopropanedicarboxamide succinate], the “hygroscopicity by DVS” value in series [2] is reported as “non-hygroscopic”. In series [2] (setting [7]), the “Post-DVS XRPD analysis” value was “remained crystalline and consistent with the input form”; the “hygroscopicity compared with cabozantinib malate” value is recorded as “less hygroscopic”; the “water up take (weight gain) by DVS” value is “about 0.03 weight-%”. In addition, in series [2] (setting [8]), the “Post-DVS XRPD analysis” value was “remained crystalline and was consistent with the input form”; the “water up take (weight gain) by DVS” value was “ca. 0.03 weight-%”. In series [2] (succinate), the “hygroscopicity compared with cabozantinib malate” value is “lower hygroscopicity” and the “water up take (weight gain) by DVS” value is recorded as 0.03 weight-%. In series [3] (comparison in words, no malate value printed), the “solubility compared to cabozantinib malate” value is recorded as “improved solubility”. Also, in series [3] (solid retained after solubility experiment), the “solid form after the solubility experiment (XRPD)” value is “consistent with the input succinate salt”. For the same compound, the solubility in series [3] (thermodynamic from solid, deionized water, shaking ca. 24 h, ambient temperature (ca. 22° C.), HPLC analysis) was 0.164 mg/mL. Further, in series [4] (heating rate 10° C./min, at ca. 173° C., listed as cabozantinib succinate Form A, succinate), the “TG/DTA weight loss corresponding to the endotherm in the DTA trace at ca. 173° C.” value is on record as roughly 1 weight-%. Besides, in series [4] (heating rate 10° C./min, below ca. 173° C., listed as cabozantinib succinate Form A, succinate), the “TG/DTA weight loss below ca. 173° C.” value is on record as less than 0.6 weight-%.

For `COc1cc2nccc(Oc3ccc(NC(=O)C4(C(=O)Nc5ccc(F)cc5)CC4)cc3)c2cc1OC` [(L)-malate, reference compound], the hygroscopicity as reported entry in series [5] is “non-hygroscopic”. Also, the “weight gain relative to cabozantinib succinate Form A” value in series [2] (DVS, 20 to 70% RH) turned out to be 10 fold. The “water up take (weight gain) by DVS” value in series [2] is 0.3 weight-%; in series [2] (listed as L-malate) it was “about 0.3 weight-%”; in series [2] (listed as cabozantinib malate), “about 0.3 weight-%”. The “solubility compared with cabozantinib free base” value in series [1] is given as “enhanced solubility”. The “TG/DTA weight loss corresponding to the endotherm in DTA trace at ca. 178° C.” value in series [4] (at ca. 178° C.) is “C. and 1% loss”. The “TG/DTA weight loss below ca. 178° C.” value in series [4] (below ca. 178° C.) came to 1.2 weight-% loss.

Usually solubility stands for how much of the substance goes into solution per volume. Read a high solubility as a readily soluble substance.

The values are drawn from patent US10206916B2, “Cabozantinib salts and their use as anti-cancer agents” (Sandoz AG, priority 2015, dated 2019).
